# Measurements reported in article PMC8277129, “Bioconcentration of Several Series of Cationic Surfactants in Rainbow Trout” (Environmental Science & Technology, 2021).
# Key:
# [1] = parameters: method as in Perrin 1965, SRC, REACH, Perrin 1972, Hall 1957; settings: selected per amine type, weighted from simulated and experimental analogue data; ref Perrin 1965, SRC, REACH, Perrin 1972, Hall 1957; cited from earlier work
# [2] = tested on: juvenile rainbow trout (Oncorhynchus mykiss); assay: Bioconcentration (BCF) experiment based on OECD 305, aqueous exposure to surfactant mixtures; format: in vivo
# Description: Juvenile rainbow trout were purchased from EM lax in Västervik, Sweden, and held in the aquaria facility for one month prior to starting the experiment on August 28, 2018. Ethical approval for the experiments was obtained from Stockholm’s djurförsöksetiska nämnd (decision 9967–2017). The experiment was conducted in six 350 L fiberglass aquaria with a water renewal rate of 1.5 L min^–1 corresponding to a turnover time of […]. The water temperature and the air temperature in the aquaria room were 10 °C. The lighting was dim and programmed on a 12 h light/12 h dark cycle.
# Three BCF experiments were conducted, one each for MIX1 and MIX2 at pH ∼7.6 (denoted MIX1 and MIX2 in the following), and one for MIX1 at pH ∼6.2 (MIX1pH). Each experiment consisted of a 14 d exposure phase and a 28 d depuration phase. There were also two control aquaria where unexposed fish were kept, one at pH 7.6 and one at pH 6.2. For the pH 6.2 aquaria, a 20% v:v formic acid solution was pumped into a premixing basin where it was mixed with the inflowing water before entering the aquarium. pH sensors monitored pH in the premixing basin and the aquarium. The pH for the MIX1 and MIX2 experiments was governed by the pH of the water supply. Water samples were collected at 8 time points during each experiment for the determination of pH and alkalinity. Water samples were collected daily during the exposure phase for determination of total organic carbon (TOC), which was measured with NDIR detection after acidification, purging and high-temperature catalytic combustion (Shimadzu TOC-L).
# For the exposure phase, a methanol solution of the test chemical mixture was infused continuously at 4.0 μL min^–1 into the water inflow of the aquarium using a syringe pump. The target concentrations of the chemicals in water ranged from 2.5 to 100 μg L^–1 (Table 1). They were selected to be as low as possible to minimize the risk of toxic effects while still being high enough to enable collection of high-quality data, building on the results of the tissue distribution experiment.[32] The syringe pump was started in an aquarium containing no fish. After 16 h to allow the concentrations to stabilize, ∼80 rainbow trout were transferred to the aquarium. Over the following 14 d water samples were collected and fish were sacrificed according to the schedule in Table S5. The remaining fish were then transferred to a second aquarium that received water without chemical addition. Over the following 28 d further water samples were collected and fish were sacrificed (Table S5).
# At each fish sampling, 4–6 fish were sacrificed. Fish were also sampled periodically from the control aquaria. Following stunning and severance of the spinal cord, the fish were placed in a polyethylene bag, weighed, and immediately frozen at −20 °C. The median fish weight at sacrifice was 10.94 g, with a 25th and 75th percentile of 8.43 and 13.58 g, respectively.
# Three fish from each time point were prioritized for analysis based on proximity to the median fish weight. Each fish was semithawed, cut into 3–4 pieces, and homogenized with an Ultra-Turrax device. 150 mg of the homogenate was transferred to a preweighed 13 mL polypropylene tube, centrifuged to a pellet, and weighed. 50 μL of methanol was added and the prepared aliquot was frozen. For extraction internal standard solution (isotope labeled standards of Q10 (D21), Q14 (D29), and P16 (D33)), 3 mL of methanol and 3 steel balls (3.2 mm diameter) were added to the prepared aliquot. This mixture was mixed in a bullet blender for 1 min, and then placed in an ultrasound bath at 50 °C for 60 min. Following centrifugation, the supernatant was decanted and the extraction was repeated. The extracts were combined and a portion corresponding to 25–50 mg homogenate was cleaned up on a weak cationic exchange SPE column (WCX, 60 mg) as described elsewhere.[32] […]
# [3] = Membrane-water partition coefficient of the charged form (DMLW,C); format: physicochemical; settings: extrapolated from Timmer and Droge (2017)
# Description: Table S3: Test chemical properties
# Abbr. pKa$ Log DOC§ Log DMLW,C# SMILES
# $ pKa values derived/reported for different alkylamine type analogues. The selected value is expected to be independent of chain length for all longer chain homologues, using a weighted value obtained from the different sources with more focus on experimental data:
# Algorithm / simulated data Experimental reference data (25 °C)
# Chem ACD/ COSMO- selected
# (https://echa.europa.eu/registration-dossier/-
# [4] = Estimated neutral fraction in water at the fish gill surface; settings: pH 7.6 experiments; estimated pKa of 10
# Excerpt: The BCF was markedly lower for the QACs compared to tertiary amines with the same chain length: a factor >670 for Q10 compared to T10, and a factor 160 for Q14 compared to T14 (Figure 1, upper panel). The prominent structural difference between the QACs and the analogous tertiary amines is that the former are permanently charged, while the latter exist in both a charged (protonated) and a neutral form.
# Text S5: Estimation of pH at the gill surface
# The pH at the surface of the gills was calculated using the following system of 5 equations:
# alk = 2 × [CO2 ― ] + [HCO ― ] (3)
# DIC = [H CO ] + [HCO ― ] + [CO2 ― ] (4) where alk is alkalinity and DIC is total dissolved inorganic carbon. The dissociation constants K1 and K2 were estimated from water temperature according to equations 9.23 and 9.24 in http://www-naweb.iaea.org/napc/ih/documents/global_cycle/vol%20I/cht_i_09.pdf The measured pH and alkalinity in bulk water were used to solve for [H+], [HCO3-], [CO32-], [H2CO3] and DIC. For the water in the gill lamella, the carbon added to the water via respiration (0.0002 mol L-1 based on estimated oxygen demand and gill ventilation rate for a 10 g fish at 10 °C (Arnot et al. 2008, Armitage et al. 2013)) was added to DIC, and using this new DIC and the alkalinity the 5 equations were resolved for [H+], [HCO3-], [CO32-], [H2CO3] and pH. […]
# gills of rainbow trout = assay: Mechanistic one-box mass balance model of gill uptake and elimination; settings: pH 7.6 (MIX1, MIX2)
# Excerpt: To gain more mechanistic insight into the results, we formulated a simple one-box mass balance model of chemical bioconcentration in fish that considered diffusive uptake and elimination across the gills as well as biotransformation.[33] The flow of water across the gills and the flow of blood through the gills were modeled as perfusion limited resistances that constrain gill uptake and elimination. […] Consequently, these resistances are unknowns. Ion trapping effects caused by differences in pH between water at the gill surface and blood in the gills are considered, drawing on previous work on the uptake and elimination of ionizable organic chemicals across the gills of rainbow trout.[22],[23] Partitioning of the chemical from the dissolved phase into blood and into whole fish was calculated as the product of the membrane lipid–water distribution ratio (DMLW,T, including partitioning of both the neutral and the charged forms) and the fraction of membrane lipid in blood and whole fish. A detailed description of the model is provided in the SI (Text S3).
# The contribution of the water perfusion and blood perfusion resistances were compared with the overall resistance for transport across the gills from water to blood (RW→B), which was calculated from the measured kU according to equation S4.3. […] For all of the other chemicals the blood resistance is insignificant compared to the overall resistance.
# The rate constant for elimination across the gills, k2, can be defined as follows: [drawing 1] 1 where αB and αW are the neutral fractions of the chemical in the blood and in the water at the gill surface, respectively, and DFW is the fish-water distribution ratio of the chemical at the pH of blood (8.1) (see Text S3). Using the measured kU and the values of αW, αB, and DFW estimated for the model, k2 was calculated (Table 2).
# [5] = pH 7.6 (MIX1, MIX2), whole fish
smiles,measurement,setting,value
"CCCCCCCCCCCCCCN(C)C [T14, N,N-dimethyltetradecylamine]",pKa used (selected value),[1],C14N(CH3)2 (10.0)
same,factor by which kU is higher than for Q14,[2]; pH 7.6,260
same,uptake rate constant (kU),"[2]; pH 7.6 (MIX1, MIX2), 14 d exposure, 28 d depuration, whole fish, 10 °C",27 L kg^–1 h^–1
same,BCF (kU/kT),[2]; [5],8100 L kg^–1
same,measured total elimination rate constant (kT),[2]; [5],0.0034 h^–1
same,"Log DMLW,C (membrane-water partition coefficient of the charged form)",[3],6.46
same,neutral fraction in the water at the fish gill surface,[4],approximately 0.002
same,k2/kT,gills of rainbow trout,1.2
same,predicted gill elimination rate constant eq 1 (k2),"gills of rainbow trout; from measured kU and modeled αW, αB, DFW",0.004 h^–1
